The text below walks through data of the NIST ThermoML archive (doi:10.1021/je800446c).

For the data set the following is noted: 298.15 K; 101.33 kPa; Liquid; Pycnometric method.

Each structure is given as a SMILES string. Numbers after ± are expanded uncertainties.

The term mass density denotes mass per unit of volume. With `CCCCO` [butan-1-ol], the mass density was found to be 805.85 ± 0.72 kg/m3.

Turning to `CCC(C)O` (stereo unspecified) [butan-2-ol], the mass density is recorded as 802 ± 1 kg/m3. With `CCO` [ethanol] the figure was 785.35 ± 0.71 kg/m3.

`CO` [methanol]: the mass density is given as 786.57 ± 0.71 kg/m3. Then `CCCO` [propan-1-ol], with 799.98 ± 0.72 kg/m3; and `CC(C)O` [propan-2-ol], with 781.35 ± 0.7 kg/m3.
